Data taken from PubChem BioAssay (NCI).
Values joined by “and” are separate entries in the source; they are usually repeats but may differ in a detail not shown here. Identical values can stand only once.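 Where inhibition never reached the appropriate level, the endpoint shown equals the highest concentration tested. Otherwise, values were interpolated linearly from a five-concentration, 48-hour dose response in 96-well plates. Abbreviation: GI50, concentration required for 50% inhibition of growth. TGI denotes the concentration required for complete inhibition of growth.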

Assays:
Experiment in all cases: growth of human tumour cells (NCI), 48 h
BT-549 breast = test system: BT-549 breast
SK-MEL-5 melanoma = test system: SK-MEL-5 melanoma
UACC-257 melanoma = test system: UACC-257 melanoma
MOLT-4 leukemia = test system: MOLT-4 leukemia
NCI-H226 lung = test system: NCI-H226 lung
RPMI-8226 leukemia = test system: RPMI-8226 leukemia
UACC-62 melanoma = test system: UACC-62 melanoma
MALME-3M melanoma = test system: MALME-3M melanoma
HOP-92 NSCLC = test system: HOP-92 NSCLC
T-47D breast = test system: T-47D breast

Row | Structure (SMILES) | GI50 (BT-549 breast) [µM] | TGI (BT-549 breast) [µM] | GI50 (SK-MEL-5 melanoma) [µM] | TGI (SK-MEL-5 melanoma) [µM] | GI50 (UACC-257 melanoma) [µM] | TGI (UACC-257 melanoma) [µM] | GI50 (MOLT-4 leukemia) [µM] | TGI (MOLT-4 leukemia) | GI50 (NCI-H226 lung) [µM] | TGI (NCI-H226 lung) | GI50 (RPMI-8226 leukemia) [µM] | TGI (RPMI-8226 leukemia) [µM] | GI50 (UACC-62 melanoma) [µM] | TGI (UACC-62 melanoma) | TGI (MALME-3M melanoma) [µM] | TGI (HOP-92 NSCLC) [µM] | GI50 (MALME-3M melanoma) [µM] | GI50 (T-47D breast) [µM] | TGI (T-47D breast) [µM] | GI50 (HOP-92 NSCLC) [µM]
1 | Cc1nc2sccn2c1-c1csc(Nc2cccc(Cl)c2C)n1 | 3.44 | 20.5 | 1.52 | 3.92 | 2.52 | 12.5 | 4.22 | 26.8 µM | 3.24 | 48.5 µM | 3.83 | 33.3 | 3.93 | 19.8 µM |  |  |  |  |  | 
2 | COC(=O)C(=O)C(C(=O)C(=O)Nc1cccc(C(C)=O)c1)c1nc2ccccc2[nH]c1=O (stereo unspecified) |  |  |  | > 100 |  | > 100 |  | > 100 µM |  | > 100 µM |  |  |  | > 100 µM | > 100 | > 100 |  |  |  | 
3 | CCOC(=O)c1cc(/C=C/C(C)=C/C(=O)OC)oc1C |  |  |  |  |  | > 100 |  | > 100 µM |  |  |  | > 100 |  | > 100 µM | > 100 | > 100 |  |  |  | 
4 | Cc1cccc(C)c1NC(=O)C1C(=O)N(c2c(C)cccc2C)C(=O)/C1=N\NC(N)=S (stereo unspecified) |  |  |  | > 100 |  | > 100 |  | > 100 µM |  |  |  | > 100 |  | > 100 µM | > 100 | > 100 |  |  |  | 
5 | N#CCCN(CCC#N)c1ccc(C(Sc2ccccc2)C(NC(=O)c2cc([N+](=O)[O-])ccc2Cl)C(=O)Sc2ccccc2)cc1 (stereo unspecified) |  |  |  | 15.6 | 3.06 | 14.3 | 0.565 | 2.56 µM and 2.95 µM |  | 5.16 µM and 5.01 µM |  | 5.66 | 2.58 | 6.02 µM and 10.5 µM | 22 | 18.7 |  |  |  | 
6 | NC(=S)NNc1c([N+](=O)[O-])cnn(-c2ccccc2)c1=O |  |  |  | 33.2 |  | 38.8 |  | 62.5 µM |  | 35 µM |  | > 100 |  | 24.4 µM | 33.7 | 34.8 |  |  |  | 
7 | CN1CC[C@]2(C)c3ccc(O)cc3CC3CCCC1C32C (stereo partly specified) |  |  |  | > 100 |  | > 100 |  | > 100 µM |  | > 100 µM |  | > 100 |  | > 100 µM | > 100 | > 100 |  |  |  | 
8 | Cc1ccc(-c2cc(-c3ccccc3)c(C#N)c(=O)n2C2OC(CO)C(O)C(O)C2O)cc1 (stereo unspecified) |  |  |  | > 100 |  | > 100 |  | 85.3 µM |  | > 100 µM |  | > 100 |  | > 100 µM | > 100 | > 100 |  |  |  | 
9 | OC1(c2ccccc2)OC(C#Cc2ccccc2)(c2ccccc2)c2ccccc21 (stereo unspecified) |  |  |  | 20.2 |  | 20.9 |  | 8.01 µM |  | 7.98 µM |  | 6.62 |  | 3.84 µM | 22.7 | 13.2 |  |  |  | 
10 | NC(N)=NCCC1OC(=O)C2=C1c1c(O)ccc3nccc(c13)O2 (stereo unspecified) |  |  | 62.1 | > 100 | 1.73 | > 100 | > 100 | > 100 µM | 89.9 | > 100 µM | > 100 | > 100 | > 100 | > 100 µM | > 100 |  | > 100 | 95.1 | > 100 | 
11 | CCC1=NC(CO)[C@H](c2ccccc2)O1 (stereo partly specified) |  |  |  | > 100 |  | > 100 |  |  |  |  |  | > 100 |  | > 100 µM | > 100 | > 100 |  |  |  | 
12 | Cc1cccc(-n2c(=S)[nH]c3c(sc(=O)n3-c3ccccc3C)c2=O)c1 |  |  |  | > 100 |  | > 100 |  | > 100 µM |  | > 100 µM |  | > 100 |  | > 100 µM | > 100 | > 100 |  |  |  | 
13 | C/C(=N\N(c1ccccc1)c1ccccc1)c1c(O)cc(C)oc1=O |  |  |  |  |  | > 100 |  | > 100 µM |  | > 100 µM |  |  |  | > 100 µM | > 100 | > 100 |  |  |  | 
14 | COc1ccc(/C=C2\CCCC(C(NO)c3ccc(OC)cc3)C2=NO)cc1 (stereo unspecified) |  |  |  | 47.6 |  | > 100 |  | 80.5 µM |  |  |  | > 100 |  | > 100 µM | > 100 |  |  |  |  | 
15 | NCCCCNc1ccc2c(=O)[nH][nH]c(=O)c2c1 |  |  |  | > 100 |  | > 100 |  | > 100 µM |  | > 100 µM |  |  |  | > 100 µM | > 100 | > 100 |  |  |  | 
16 | CC1=C(C(=O)Nc2cccc(Cl)c2)C(c2ccccc2F)C(C(=O)Nc2cccc(Cl)c2)=C(C)N1 |  |  |  | 29.5 |  | 22.3 |  | 14.7 µM |  | 26 µM |  | 11.1 |  |  | 31.8 | 8.7 |  |  |  | 
17 | NC(=O)c1cc2c3ccccc3ccn2c1-c1ccccc1 | 0.485 | 13.1 | 0.0392 | 3.14 | 11.5 | 26.5 | 0.521 | 15.9 µM | 0.627 | 25.7 µM | 0.0371 | 2.31 | 0.0385 | > 41.7 µM | 47.9 | 7.77 | 16.7 |  |  | 0.0179
